# Results reported in patent publication US20050214248A1, “Non-glycosylated polyacrylamide conjugates and their use for cytoprotection” (University of Bern, priority 2002, published 2005).
# Read-outs that look alike come from different tables or passages of the source.
# How the values were obtained:
# [1] = target: T1, P-selectin (Homo sapiens, UniProt P16109); settings: cited from earlier work
# T1 sequence (P16109 42-830): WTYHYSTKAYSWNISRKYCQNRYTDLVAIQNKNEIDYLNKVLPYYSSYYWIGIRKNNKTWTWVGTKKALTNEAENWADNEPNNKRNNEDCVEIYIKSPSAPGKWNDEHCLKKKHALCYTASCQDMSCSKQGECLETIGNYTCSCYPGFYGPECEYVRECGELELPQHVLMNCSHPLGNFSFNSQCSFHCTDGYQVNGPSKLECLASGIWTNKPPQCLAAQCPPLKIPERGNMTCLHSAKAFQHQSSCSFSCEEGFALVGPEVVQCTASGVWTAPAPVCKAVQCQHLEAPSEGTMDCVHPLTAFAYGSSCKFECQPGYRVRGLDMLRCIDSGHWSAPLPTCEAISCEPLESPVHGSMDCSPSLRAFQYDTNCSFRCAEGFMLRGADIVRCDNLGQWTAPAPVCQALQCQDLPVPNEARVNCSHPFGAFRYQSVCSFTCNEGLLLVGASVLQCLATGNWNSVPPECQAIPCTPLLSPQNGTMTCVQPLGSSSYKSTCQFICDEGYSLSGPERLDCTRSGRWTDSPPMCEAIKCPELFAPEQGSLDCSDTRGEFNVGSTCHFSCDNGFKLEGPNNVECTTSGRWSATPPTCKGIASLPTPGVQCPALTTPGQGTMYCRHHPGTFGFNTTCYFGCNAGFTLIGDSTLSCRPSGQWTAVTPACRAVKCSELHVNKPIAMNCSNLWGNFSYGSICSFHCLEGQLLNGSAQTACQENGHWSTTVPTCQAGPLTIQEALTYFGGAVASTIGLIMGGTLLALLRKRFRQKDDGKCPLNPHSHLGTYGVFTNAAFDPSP
# [2] = target: T2, recombinant P-selectin (Homo sapiens, UniProt P16109); assay: In vitro assay for inhibition of P-selectin binding (HSO3Le^a-PAA-biotin binding to immobilized recombinant selectin); settings: for inhibition of recombinant P-selectin in the cell-free assay: result in words
# T2 construct: Recombinant ZZ-selectin (monovalent) lacking the transmembrane and cytosolic domains was produced as C-terminal chimera with the ZZ domain of protein A; made in house
# T2 sequence (P16109 42-771 limits assumed): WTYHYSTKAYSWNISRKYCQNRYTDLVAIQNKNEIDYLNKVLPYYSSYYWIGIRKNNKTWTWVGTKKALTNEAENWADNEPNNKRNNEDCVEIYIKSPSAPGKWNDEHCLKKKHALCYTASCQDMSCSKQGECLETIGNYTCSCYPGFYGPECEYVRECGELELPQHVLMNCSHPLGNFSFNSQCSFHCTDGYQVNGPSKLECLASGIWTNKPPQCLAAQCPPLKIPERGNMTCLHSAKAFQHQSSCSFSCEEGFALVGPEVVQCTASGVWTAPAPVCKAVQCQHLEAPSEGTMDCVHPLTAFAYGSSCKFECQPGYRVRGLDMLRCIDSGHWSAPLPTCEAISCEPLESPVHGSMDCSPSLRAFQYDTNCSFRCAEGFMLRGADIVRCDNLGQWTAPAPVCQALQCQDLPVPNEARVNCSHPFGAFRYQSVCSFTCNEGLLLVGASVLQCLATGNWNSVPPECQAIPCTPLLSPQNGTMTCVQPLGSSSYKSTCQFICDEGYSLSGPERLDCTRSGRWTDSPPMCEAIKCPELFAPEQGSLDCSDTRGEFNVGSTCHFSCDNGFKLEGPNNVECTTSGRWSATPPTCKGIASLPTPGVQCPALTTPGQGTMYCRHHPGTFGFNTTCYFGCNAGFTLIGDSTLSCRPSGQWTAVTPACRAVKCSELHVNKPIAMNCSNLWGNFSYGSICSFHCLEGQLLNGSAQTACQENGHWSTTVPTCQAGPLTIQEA
# Description: The in vitro test-system is based on the inhibition of HSO3Le^a-PAA-biotin binding to recombinant P-selectin. For details, see example 1.
# All PAA-based neoglycoconjugates were from 30 to 40 kDa and obtained according to standard methods (Gordeeva, E. A., Tuzikov, A. B., Galanina, O. E., Pochechueva, T. V. & Bovin, N. V. (2000). Microscale synthesis of glycoconjugate series and libraries. Anal. Biochem. 278, 230-232; Bovin, N. V., Korchagina, E. Yu., Zemlyanukhina, T. V., Byramova, N. E., Galanina, O. E., Zemlyakov, A. E., Ivanov, A. E., Zubov, V. P., and Mochalova, L. V. (1993) Synthesis of polymeric neoglycoconjugates based on N-substituted polyacrylamide. Glycoconj. J. 10, 142-151). sTyr-PAA (containing 80 mol % sTyr) was synthesized using 200% excess of sTyr in relation to the activated polymer. The degree of sTyr substitution was determined by the conjugate's increase in weight. Recombinant ZZ-selectin (monovalent) lacking the transmembrane and cytosolic domains was produced as C-terminal chimera with the ZZ domain of protein A (Priest, R., Nawaz, S., Green, P. M., and Bird, M. I. (1995). Adhesion of eosinophils to E- & P-selectin. Biochem. Soc. Trans. 23, 162S). Tripeptide Tyr-Tyr-Tyr (Bachem, Germany) and aminoglucitol (Sigma) were per-O-sulfated with SO3/Py complex (Field, R. A., Otter, A., Fu, W., Hindsgaul, O. Carbohydr. Res. 1995, 276, 347-363). Fucoidan was purchased from Sigma (USA).
# The assay was performed on 96-Well plates. Human IgG was used as a primary coating reagent to immobilize recombinant selectin via the ZZ-domain of the fusion protein. The working concentration of selectin was 3 ng/well. […] Details of this assay were published in (Game, S. M., Rajapurohit, P. K., Clifford, M., Bird, M. I., Priest, R., Bovin, N. V., Nifant'ev, N. E., O'Beime, G., and Cook, N. D. (1998) Scintillation proximity assay for E-, P-, and L-selectin utilizing polyacrylamide-based neoglycoconjugates as ligands. Anal. Biochem. 258, 127-135; Tatyana V. Pochechueva, Oxana E. Galanina, Michael I. Bird, Nikolay E. Nifant'ev, Nicolai V. Bovin. Assembly of P-Selectin Ligands on a Polymeric Template, Chem&Biol, Vol. 9, 2002, p. 757-762; Natalia Ushakova, Marina Preobrazhenskaya, Mike I. Bird, Richard Priest, A. V. Semenov, A. V. Mazurov, Nikolay Ni-fant'ev, Tatyana Pochechueva, Oxaha Galanina, Nicolai Bovin. Monomeric and Multimeric Blockers of Selectins: Comparison of In Vitro and In Vivo Activity/Biol. Chem. Hoppe Seyler, 2002 submitted).
# [3] = tested on: yield of neutrophils; settings: mouse; Cecconi et al. 1994; cited from earlier work
# [4] = tested on: Peptone-induced acute rat peritonitis; assay: Rat peritoneal inflammation model (peptone-induced acute peritonitis, neutrophil extravasation); assay type: in vivo
# Method: Acute rat peritonitis was induced as described in (Preobrazhenskaya, M. E., Berman, A. E., Mikhailov, V. I., Ushakova, N. A., Mazurov, A. V., Semenov, A. V., Usov, A. I., Nifant'ev, N. E., and Bovin, N. V. (1997) Fucoidan inhibits leukocyte recruitment in a model peritoneal inflammation in rat and blocks interaction of P-selectin with its carbohydrate ligand. Biochem. Mol. Biol. Int 43, 443-451) with some modifications. 10 ml of PBS containing 10% peptone was injected intraperitoneally into female Wistar rats (180-220 g). After 3 h rats were sacrificed and their peritoneal cavities were laved with 30 ml PBS containing 60 units/ml of heparin, 0.02% EDTA and 0.03% bovine serum. The total cell number in the lavage was counted and the cell suspension was concentrated by centrifugation at 400 g for 10 min. After 1:1 dilution with bovine serum smears were prepared and stained according to the Pappenheim method. Neutrophils were counted on two parallel slides and the total neutrophil number was calculated. The inhibitors were administered intravenously as a single dose in 0.3 ml sterile 0.9% NaCl 15 min after peptone injection. The same volume of NaCl solution Was injected into control animals. A difference between the control and tested groups was analyzed for statistical significance based on Student's t-test, p-values<0.05 were considered to be significant.
# Peptone-induced acute rat peritonitis was characterized by neutrophil extravasation into the peritoneal cavities. […] A natural ligand such as recombinant PSGL-1 acts in a dose of about 1 mg/kg (S. P. Khor, K. McCarthy, M. Dupont, K. Murray, G. Timony. Pharmacokinetics, pharmacodynamics, allometry, and dose selection of rPSGL-Ig for phase I trial. J. Pharmacol. Exp. Ther., 293, 618-624 (2000); R. Hayward, B. Campbell, Y. K. Shin, R. Scalia, A. M. Lefer. Recombinant soluble P-selectin glycoprotein ligand-1 protects against myocardial ischemic reperfusion injury in cats. Cardiovascular Res., 41, 65-76 (1999)) which approaches the fucoidan activity under study. […]
# [5] = inhibition of HSO3Le^a-PAA-biotin binding with P-selectin, means of at least triplicate determinations
compound,measurement,setting,value
3-0-sulfated galactocerebroside [sulfatide],IC50,"[1]; Marinier et al. 1997, sulfatide and some of its synthetic analogues",100 to 1000 nM
"CC(=O)NC1C(O)OC(CO)C(OC2OC(C)C(O)C(O)C2O)C1OC1OC(CO)C(O)C(OS(=O)(=O)O)C1O (centres unmarked) [HSO3Le^a, 3′-HSO3Galβ1-3(Fucα1-4)GIcNAc]","IC50, μM",[2]; [5],Nl
O=P(O)(O)O[C@H]1[C@H](OP(=O)(O)O)[C@@H](OP(=O)(O)O)[C@H](OP(=O)(O)O)[C@@H](OP(=O)(O)O)[C@H]1OP(=O)(O)O [Inositol hexaphosphate],dose inhibiting the yield of neutrophils (almost half of them),[3],about 70 mg/kg
"N[C@@H](Cc1ccc(OS(=O)(=O)O)cc1)C(=O)O [sTyr, tyrosine-O-sulfate]","IC50, μM",[2]; [5],Nl
Fucoidan,IC50,"[1]; Pochechueva et al., Ley et al. 1993, repeating hexasaccharide units",100 nM
same,IC50,[2]; [5],100 nM
same,IC50 in weight,"[2]; inhibition of HSO3Le^a-PAA-biotin binding with P-selectin, weight concentration",(100 ng/ml)^2
same,Mean inhibition (% to control),"[4]; Series 2, 1.0 mg per rat i.v.",92 (p < 0.001) %
same,Number of neutrophils per rat × 10^−6,"[4]; Series 2, 1.0 mg per rat i.v., mean ± SEM",2.5 ± 0.5 × 10^−6
same,blocking of the inflammation process,[4]; result in words,definitely blocked the inflammation process
Hexa-O-sulfo-aminoglucitol,"IC50, μM",[2]; [5],Nl
same,inhibition of recombinant P-selectin in the cell-free assay,[2],unable to inhibit
Tripeptide Tyr-Tyr-Tyr per-O-sulfated with SO3/Py complex [sTyr-sTyr-sTyr],"IC50, μM",[2]; [5],Nl
same,inhibition of recombinant P-selectin in the cell-free assay,[2],unable to inhibit
